Source: patent EP0807624B1, “RETINOIC ACID DERIVATIVES” (THE SALK INSTITUTE FOR BIOLOGICAL STUDIES, priority 1991, dated 1993)

What was measured:
RXR-γ = target: T1, RXR-γ (Mus musculus, UniProt P28705); test: Cotransfection assay in CV-1 cells; format: cell-based; conditions: RXRγ; maximal response relative to retinoic acid at 10^-5 M
T1 sequence (P28705 1-463): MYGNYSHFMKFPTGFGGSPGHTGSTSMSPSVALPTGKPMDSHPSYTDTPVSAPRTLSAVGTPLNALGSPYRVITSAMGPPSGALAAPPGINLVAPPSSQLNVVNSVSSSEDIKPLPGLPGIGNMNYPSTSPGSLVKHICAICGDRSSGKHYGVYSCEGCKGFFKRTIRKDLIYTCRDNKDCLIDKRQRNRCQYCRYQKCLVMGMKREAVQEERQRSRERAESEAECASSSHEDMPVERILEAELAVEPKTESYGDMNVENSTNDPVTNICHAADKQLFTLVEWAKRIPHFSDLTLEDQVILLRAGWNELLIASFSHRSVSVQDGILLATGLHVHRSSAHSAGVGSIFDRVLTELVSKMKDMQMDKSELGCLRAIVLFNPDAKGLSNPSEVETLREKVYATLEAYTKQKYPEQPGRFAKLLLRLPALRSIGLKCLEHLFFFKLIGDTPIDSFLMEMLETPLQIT

RAR-γ = test: Cotransfection assay in CV-1 cells; format: cell-based, human; conditions: RARγ; maximal response relative to retinoic acid at 10^-5 M
RAR-α = test: Cotransfection assay in CV-1 cells; format: cell-based, human; conditions: RARα; maximal response relative to retinoic acid at 10^-5 M
RXR-β = target: T2, RXR-β (Mus musculus, UniProt P28704); test: Cotransfection assay in CV-1 cells; format: cell-based; conditions: RXRβ; maximal response relative to retinoic acid at 10^-5 M
T2 sequence (P28704 1-520): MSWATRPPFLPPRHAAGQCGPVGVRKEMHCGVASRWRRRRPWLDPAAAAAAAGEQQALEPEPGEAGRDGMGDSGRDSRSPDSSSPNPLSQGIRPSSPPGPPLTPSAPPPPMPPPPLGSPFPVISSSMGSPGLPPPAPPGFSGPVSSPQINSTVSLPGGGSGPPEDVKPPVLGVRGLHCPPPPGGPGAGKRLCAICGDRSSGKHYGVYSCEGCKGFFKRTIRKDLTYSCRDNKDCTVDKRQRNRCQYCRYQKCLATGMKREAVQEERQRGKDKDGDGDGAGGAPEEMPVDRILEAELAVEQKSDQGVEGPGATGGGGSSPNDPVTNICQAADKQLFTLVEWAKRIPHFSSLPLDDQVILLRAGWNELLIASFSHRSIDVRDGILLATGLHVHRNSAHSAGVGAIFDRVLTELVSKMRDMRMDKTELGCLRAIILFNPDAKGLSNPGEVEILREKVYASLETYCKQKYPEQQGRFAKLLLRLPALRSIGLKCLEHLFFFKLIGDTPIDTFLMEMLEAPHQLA

RAR-β = test: Cotransfection assay in CV-1 cells; format: cell-based, human; conditions: RARβ; maximal response relative to retinoic acid at 10^-5 M
RXR-α = test: Cotransfection assay in CV-1 cells; format: cell-based, human; conditions: RXRα; maximal response relative to retinoic acid at 10^-5 M
[1] = test system: murine melanoma cell line Clone M3; test: In vitro proliferation of melanoma cell line; conditions: Mus musculus, read-out: % Growth inhibition
[2] = test system: normal human epidermal keratinocytes (NHEK534 cell line); test: cells; conditions: Keratinocyte, read-out: EC50 for inhibition of differentiation
[3] = test system: human primary metastatic melanoma cell line c81-46c; test: In vitro proliferation of melanoma cell line; format: cell-based; conditions: read-out: % Growth inhibition; for inhibition at 0.01 µM: 0.01 µM added; for inhibition at 1 µM: 1 µM added
HL60R cells = test: Differentiation of HL60R cells (NBT); format: cell-based; conditions: concentrations up to 10 µM
HL60 cells = test: cells; conditions: Homo sapiens, HL-60, 144 h, read-out: EC-50 for differentiation, as determined by NBT

Row | Compound | Efficacy (RXR-γ) [%] | Efficacy (RXR-β) [%] | Efficacy (RAR-γ) [%] | Efficacy (RAR-α) [%] | Efficacy (RAR-β) [%] | Efficacy (RXR-α) [%] | inhibition at 0.01 µM [1] [%] | inhibition at 1 µM [1] [%] | EC50 [2] [nM] | inhibition at 0.01 µM [3] [%] | inhibition at 1 µM [3] [%] | differentiation (NBT) of HL60R cells (HL60R cells) | EC50 (HL60 cells) [nM]
1 | CC1=C(/C=C/C(C)=C\C=C\C(C)=C\C(=O)O)C(C)(C)CCC1O (stereo not drawn) [4-hydroxy-9-cis-retinoic acid] | 115 | 143 | 81 | 65 | 71 |  |  |  |  |  |  |  | 
2 | CC1=C(/C=C/C(C)=C\C=C\C(C)=C\C(=O)O)C(C)(C)CCC1 [9-cis-retinoic acid] |  |  |  |  |  |  | -49 | -85 | 20 ± 2.8 | -28 | -45 |  | 
3 | CC1=C(/C=C/C(C)=C/C=C/C(C)=C/C(=O)O)C(C)(C)CCC1 [all-trans-retinoic acid] |  |  |  |  |  |  |  |  | 20 ± 2.8 | -17 | -44 | resistant to differentiation | 2000

More lines, main results first:

Row | Efficacy (RXR-γ) [%] | Efficacy (RXR-β) [%] | Compound | Efficacy (RAR-γ) [%] | Efficacy (RAR-α) [%] | Efficacy (RAR-β) [%] | Efficacy (RXR-α) [%] | inhibition at 0.01 µM [1] [%] | inhibition at 1 µM [1] [%] | EC50 [2] [nM] | inhibition at 0.01 µM [3] [%] | inhibition at 1 µM [3] [%] | differentiation (NBT) of HL60R cells (HL60R cells) | EC50 (HL60 cells) [nM]
4 | 133 | 105 | CC1=C(/C=C/C(C)=C\C=C\C(C)=C\C(=O)O)C(C)(C)CCC1=O [4-keto-9-cis-retinoic acid] |  |  |  | 104 |  |  |  |  |  |  | 
5 | 77 | 88 | CC1=C(/C=C/C(=C\C=C\C(C)=C\C(=O)O)c2ccccc2)C(C)(C)CCC1 [9-phenyl-9-cis-retinoic acid] | 59 | <2 | 39 | 76 |  |  |  |  |  |  | 
